Data set [1] concerns chicken ALAS1 drug responsive enhancer sequence (ADRES) elements. The data set is described as follows: Luciferase reporter gene assay of chicken ALAS1 5'-flanking fragments / ADRES elements in transfected LMH cells. The conditions noted are these: for ADRES activation in reporter assays: LMH cells, 16 h, PIA 250 μM, glutethimide 500 μM, metyrapone 400 μM, dexamethasone 50 μM, RU-486 10 μM, rifampicin 100 μM, TCPOBOP 10 μM, compared with PB 600 μM. It counts as cell-based. On the procedure:
The constructs were transfected together with a transfection-control construct expressing β-galactosidase into LMH cells. Cells were then treated with 600 μM PB for 16 h and luciferase assays were performed on the cell extracts. Relative luciferase levels are standardized against cells transfected with vector containing no insert and expressed as fold induction. Experiments were repeated at least three times and data from a representative experiment tested in triplicate are shown here. Error bars represent standard deviations;
Three major subclones were generated from the region upstream of the transcriptional start site, including a 3282 bp SmaI fragment and 5056 bp and 7973 bp EcoRI segments (FIG. 1A). The SmaI clone extends from −167 bp to −3449 bp, whereas the EcoRI subfragments span the regions from −2347 bp to −7402 bp and −7403 bp to −15376 bp, respectively. These subfragments were cloned into the pLucMCS modified luciferase vector containing an SV40 promoter as described in Materials and Methods. Drug inducibility was measured in transiently transfected LMH cells treated with 600 μM PB and compared with control values. […]
The modified enhancers were examined for response to 600 μM PB in luciferase reporter gene assays and the results are presented in FIG. 3.
Leghorn Male Hepatoma (LMH) cells were obtained from the American Type Culture Collection and cultivated in 10 cm dishes in Williams E medium supplemented with 10% FCS, 1% glutamine (2 mM) and 1% penicillin/streptomycin (50 IU/ml). Dishes coated with 0.1% gelatin were used for routine culture of LMH cells in order to facilitate proper seating of the cells onto the plastic plate surface.
A general note: In a reporter assay the amount or activity of a reporter protein is the signal.

Data set [2] deals with ALAS1 mRNA. The data set is described as follows: ALAS1 mRNA quantification (Taqman real-time PCR) in LMH cells. Type of data set: cell-based, chicken. On the procedure:
We next wanted to compare ADRES-mediated ALAS1 induction levels from reporter gene assays with stimulation of transcription in a physiological system. […] In addition, the common CYP3A inducers dexamethasone (50 μM), metyrapone (400 μM), and 10 μM mifepristone (RU-486) were employed for comparison. We were also interested in the effects of […] 5-pregnen-3β-ol-20-one-16α-carbonitrile (PCN) and rifampicin (100 μM) due to their species-specific effects on PXR activation and CYP3A induction. Messenger RNA was reverse transcribed and levels of ALAS1 cDNA were quantified using the Taqman real-time PCR quantification system as described in Materials and Methods. […] This value was chosen to represent 100% induction, against which all other values are compared.
LMH cells were plated onto 12-well plates, expanded to 70-80% surface density and incubated in serum-free media for 24 h. Cells were then exposed to either drug or vehicle and RNA was isolated with Trizol reagent (Gibco BRL) according to the manufacturer protocol. One μg of total RNA was reverse transcribed with the Moloney murine leukemia virus reverse transcriptase kit (Roche Molecular Biochemicals). PCR was performed using the Taqman PCR core reagent kit (PE Applied Biosystems) and transcript levels quantitated with an ABI Prism 7700 sequence detection system (PE Applied Biosystems). Relative transcript levels were determined using the relative quantitation method measuring the ΔΔCt. The following primers and probes were used in these reactions. […] Transcript levels were measured in separate tubes and GAPDH values were used for normalization of ALAS1 values.
In general terms: Quantitative PCR measures a nucleic acid by following its amplification.

Data set [3] concerns the target T1, mouse PXR (Mus musculus, UniProt O54915).
T1 sequence (O54915 1-431): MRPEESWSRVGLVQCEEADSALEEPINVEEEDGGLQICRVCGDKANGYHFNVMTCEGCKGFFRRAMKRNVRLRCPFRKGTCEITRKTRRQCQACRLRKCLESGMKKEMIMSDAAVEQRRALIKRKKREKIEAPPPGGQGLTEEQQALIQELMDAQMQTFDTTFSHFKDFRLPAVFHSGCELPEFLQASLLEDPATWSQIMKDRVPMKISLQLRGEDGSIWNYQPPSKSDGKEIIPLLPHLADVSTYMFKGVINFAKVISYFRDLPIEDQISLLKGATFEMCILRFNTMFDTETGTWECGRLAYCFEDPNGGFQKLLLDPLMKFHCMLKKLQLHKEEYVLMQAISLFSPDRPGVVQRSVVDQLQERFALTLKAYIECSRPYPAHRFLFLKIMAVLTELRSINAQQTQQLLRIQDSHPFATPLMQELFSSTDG
Here is the method:
(§1) To test the effects of the mutations on transcriptional activation, transactivations in CV-1 cells with mouse PXR and mouse CAR and their respective inducers PCN and TCPOBOP, were performed (FIG. 14). The inducible DNA constructs were subcloned into the CAT5 reporter vector and tested for their ability to be transactivated by nuclear receptor transcription factors in CV-1 cells. Mouse PXR (A) and mouse CAR (B) coding regions cloned into the pSG5 expression vector were cotransfected along with a vector expressing pSV β-galactosidase as control. Cells were then treated for 16 h with either drugs (A, PCN; B, TCPOBOP) or vehicle control and cell extracts were analyzed for CAT expression normalized against β-galactosidase levels. Experiments were repeated at least three times and error bars represent standard deviations.

In data set [4] the target is T2, mouse CAR (Mus musculus, UniProt O35627).
T2 construct: expressed in transfected cells; host or cells: CV-1 cells, pSG5 expression vector
T2 sequence (O35627 1-358): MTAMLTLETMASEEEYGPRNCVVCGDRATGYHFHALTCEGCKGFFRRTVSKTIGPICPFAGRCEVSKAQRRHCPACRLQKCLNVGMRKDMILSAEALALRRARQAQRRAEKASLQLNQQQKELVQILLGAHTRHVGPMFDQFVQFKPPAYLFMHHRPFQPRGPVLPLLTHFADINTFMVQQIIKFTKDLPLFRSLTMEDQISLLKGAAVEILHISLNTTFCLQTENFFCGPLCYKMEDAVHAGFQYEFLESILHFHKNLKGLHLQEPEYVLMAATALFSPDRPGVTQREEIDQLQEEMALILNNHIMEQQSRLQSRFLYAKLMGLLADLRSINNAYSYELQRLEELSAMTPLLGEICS
The data set is described as follows: Transactivation of 369 bp ADRES by mouse CAR in CV-1 cells (CAT reporter). It counts as cell-based. On the procedure:
as §1

Data set [5] has as its system mouse 369 bp DRES. The data set is described as follows: Luciferase reporter gene assay of mouse ALAS1 fragments / 369 bp DRES in LMH cells. Type of data set: cell-based. The conditions noted are these: for induction of the 369 bp DRES, ranking of drugs: metyrapone 500 μM, glutethimide 500 μM, PIA 250 μM. On the procedure: A 175 bp fragment (441 to 615) (Seq. Id. No. 3) was isolated by digesting the 2.6 kb fragment with SacI/XbaI. All fragments were subcloned in the pGL3LUCpro+MCS vector and the resulting constructs tested for inducibility in LMH reporter gene assay (FIG. 6). […] The 369 bp fragment was termed Drug responsive enhancer sequence DRES.
To compare the 369 bp DRES to other inducible fragments, a series of different drugs was used as inducers: clothrimazole (Clo, 10 μM), dexamethasone (Dex, 50 μM), glutethimide (GE, 500 μM), metyrapone (Met, 500 μM), phenobarbital (PB, 500 μM), PCN (10 μM), propylisopropylacetamide (PIA, 250 μM), rifampicin (Rif, 10 μM), RU486 (10 μM), TCPOBOP (10 μM).
Data shown is from two independent experiments.

The structures appear in SMILES notation. Where two headings read alike, the source gives them in different places.

With `CC(=O)[C@H]1[C@H](C#N)C[C@H]2[C@@H]3CC=C4C[C@@H](O)CC[C@]4(C)[C@H]3CC[C@@]21C` [PCN, 5-pregnene-3β-ol-20-one-16α-carbonitrile], in data set [1], the “ADRES activation in reporter assays” value is “minor or no effects”. For the same compound, the “effect on ALAS1 mRNA levels” value in data set [2] is on record as “minor or no effects”. Besides, in data set [3], the “activation, DR4-1 double mutant” value is recorded as 1.9 fold; the “activation, first DR4-2 single mutant (DR4-2/hs1)” value is given as 5.8 fold; the “activation, second DR4-2 single mutant (DR4-2/hs2)” value was determined as 5.3 fold; the “drug response, both NR binding sites of 369 bp element altered” value is given as “elimination of PXR-mediated drug response”. For the same compound, in data set [3], the “induction, 369 bp wild type” value was 5.6 fold; the “induction, DR4-2 double mutant” value is listed as 2.5 fold; the “induction, first DR4-1 single mutant (DR4-1/hs1)” value was 2.7 fold; the “induction, second DR4-1 single mutant (DR4-1/hs2)” value is given as 2.0 fold.
As to `CC#C[C@]1(O)CC[C@H]2[C@@H]3CCC4=CC(=O)CCC4=C3[C@@H](c3ccc(N(C)C)cc3)C[C@@]21C` [RU-486, Mifepristone], in data set [1], the “ADRES activation in reporter assays” value was “minor or no effects”. Moreover, the “effect on ALAS1 mRNA levels” value in data set [2] (LMH cells, 16 h, PB 600 μM, dexamethasone 50 μM, RU-486 10 μM, rifampicin 100 μM, TCPOBOP 10 μM) is “minor or no effects”.
For `C[C@@]12CCC[C@H]1[C@@H]1CC[C@H]3C[C@@H](O)CC[C@]3(C)[C@H]1CC2` [androstanol], in data set [4], the “basal expression exceeding androstanol-treated levels, DR4-2/hs1 single mutant” value came out at 2.5 fold and the “basal expression exceeding androstanol-treated levels, DR4-2/hs2 single mutant” value was found to be 1.9 fold.
Turning to `CCC1(c2ccccc2)CCC(=O)NC1=O` (stereo not drawn) [glutethimide, Glutethimide], the “ADRES activation in reporter assays” value in data set [1] is recorded as “in excess of levels obtained from PB treatment”. The “relative response of the 176 bp element” value in data set [1] (glutethimide 500 μM vs metyrapone 400 μM) is “slightly more affinity for glutethimide than metyrapone”. The “induction of the 369 bp DRES, ranking of drugs” value in data set [5] is “strongest inducer”.
With `CC(C)(C(=O)c1cccnc1)c1cccnc1` [metyrapone, 2-methyl-1,2-di-3-pyridyl-propadone], in data set [1], the “ADRES activation in reporter assays” value is reported as “in excess of levels obtained from PB treatment”. The “relative response of the 167 bp element” value in data set [1] (metyrapone 400 μM vs glutethimide 500 μM) is on record as “stronger response to metyrapone than glutethimide”. For the same compound, the “induction of mouse 175, 280, 321, 328 and 369 bp fragments” value in data set [5] (Metyrapone 500 μM) is “enhanced induction”. Besides, in data set [5], the “induction of the 369 bp DRES, ranking of drugs” value is listed as “strongest inducer”.
